According to ChEMBL document CHEMBL3044807, “Synthesis and biological evaluation of new ozonides with improved plant growth regulatory activity” (2009):

What follows are molecules tested on Cucumis sativus (assay: Phytotoxic activity against Cucumis sativus (cucumber) assessed as aerial part growth inhibition at 5.0 x 10^-4 mol/l measured 15 days after seed sowing under greenhouse trials (reference value: 0.0%)). Details: 360 h.
Type: functional

First: CC1=C2CCC(C)C[C@@]23O[C@H]1[C@H](C)C(=O)[C@H]3C (some centres not stated)
Second: C[C@@]12C=C[C@H](O1)[C@H]1CCCC[C@H]2C1=O
The inhibition at 500 µM of the first is lower: 5.9% for the first, 44.6% for the second.

O=C1[C@@H]2CCCC[C@@H]1[C@@H]1C=C[C@@H]2O1 was tested, and the inhibition at 500 µM was 30.4%.

These molecules were tested on Cucumis sativus (assay: Phytotoxic activity against Cucumis sativus (cucumber) assessed as weight of aerial parts at 5.0 x 10^-4 mol/l measured 15 days after seed sowing under greenhouse trials (reference value: 47.0 mg)). Details: not given.
Type: functional

First: CC1=C2CCC(C)C[C@@]23O[C@H]1[C@H](C)C(=O)[C@H]3C (some centres not stated)
Second: C[C@@]12C=C[C@H](O1)[C@H]1CCCC[C@H]2C1=O
The Activity of the first is higher: 44.2 mg for the first, 26 mg for the second.

O=C1[C@@H]2CCCC[C@@H]1[C@@H]1C=C[C@@H]2O1 showed an Activity of 32.7 mg.

Each molecule was assayed on Sorghum bicolor (assay: Phytotoxic activity against Sorghum bicolor seedlings assessed as inhibition of radicle growth at 5x10'-4 mol/l at 28 +/-1 degC after 48 hr by acid-washed sand based radicle elongation assay (reference value: 0.0%)). Details: not given.
Type: functional

Compared with CC1=C2CCC(C)C[C@@]23O[C@H]1[C@H](C)C(=O)[C@H]3C (some centres not stated), C[C@@]12C=C[C@H](O1)[C@H]1CCCC[C@H]2C1=O is lower in inhibition at 500 µM: 71.4% for the first, 58.9% for the second.

Work on O=C1[C@@H]2CCCC[C@@H]1[C@@H]1C=C[C@@H]2O1 yielded an inhibition at 500 µM of 62%.

Each molecule was assayed on Sorghum bicolor (assay: Phytotoxic activity against Sorghum bicolor assessed as weight of aerial parts at 5.0 x 10^-4 mol/l measured 15 days after seed sowing under greenhouse trials (reference value: 19.0 mg)). Details: not given.
Type: functional

Compared with CC1=C2CCC(C)C[C@@]23O[C@H]1[C@H](C)C(=O)[C@H]3C (some centres not stated), C[C@@]12C=C[C@H](O1)[C@H]1CCCC[C@H]2C1=O is lower in Activity: 14 mg for the first, 10.9 mg for the second.

Work on O=C1[C@@H]2CCCC[C@@H]1[C@@H]1C=C[C@@H]2O1 yielded an Activity of 18.1 mg.

Each molecule was assayed on Sorghum bicolor (assay: Phytotoxic activity against Sorghum bicolor assessed as weight of roots at 5.0 x 10^-4 mol/l measured 15 days after seed sowing under greenhouse trials (reference value: 14.0 mg)). Details: not given.
Type: functional

Going from CC1=C2CCC(C)C[C@@]23O[C@H]1[C@H](C)C(=O)[C@H]3C (some centres not stated) to C[C@@]12C=C[C@H](O1)[C@H]1CCCC[C@H]2C1=O, the Activity falls from 13.1 mg to 9.7 mg.

Work on O=C1[C@@H]2CCCC[C@@H]1[C@@H]1C=C[C@@H]2O1 yielded an Activity of 13.1 mg.

What follows are molecules tested on Cucumis sativus (assay: Phytotoxic activity against Cucumis sativus (cucumber) seedlings assessed as inhibition of radicle growth at 5x10'-4 mol/l at 28 +/-1 degC after 48 hr by acid-washed sand based radicle elongation assay (reference value: 0.0%)). Details: not given.
Type: functional

First: CC1=C2CCC(C)C[C@@]23O[C@H]1[C@H](C)C(=O)[C@H]3C (some centres not stated)
Second: C[C@@]12C=C[C@H](O1)[C@H]1CCCC[C@H]2C1=O
The inhibition at 500 µM of the first is lower: 72.4% for the first, 74.7% for the second.

For O=C1[C@@H]2CCCC[C@@H]1[C@@H]1C=C[C@@H]2O1, the inhibition at 500 µM was 82.2%.

The molecules below were run on Cucumis sativus (assay: Phytotoxic activity against Cucumis sativus (cucumber) seedlings assessed as germination at 5x10'-4 mol/l at 28 +/-1 degC after 48 hr by acid-washed sand based radicle elongation assay (reference value: 100%)). Details: not given.
Type: functional

First: CC1=C2CCC(C)C[C@@]23O[C@H]1[C@H](C)C(=O)[C@H]3C (some centres not stated)
Second: C[C@@]12C=C[C@H](O1)[C@H]1CCCC[C@H]2C1=O
The germination % at 500 µM of the first is higher: 96% for the first, 95% for the second.

O=C1[C@@H]2CCCC[C@@H]1[C@@H]1C=C[C@@H]2O1 gave a germination % at 500 µM of 90%.

Each molecule was assayed on Cucumis sativus (assay: Phytotoxic activity against Cucumis sativus (cucumber) seedlings assessed as radicle length at 5x10'-4 mol/l at 28 +/-1 degC after 48 hr by acid-washed sand based radicle elongation assay (reference value: 4.8 cm)). Details: not given.
Type: functional

Compared with CC1=C2CCC(C)C[C@@]23O[C@H]1[C@H](C)C(=O)[C@H]3C (some centres not stated), C[C@@]12C=C[C@H](O1)[C@H]1CCCC[C@H]2C1=O is lower in Activity: 1.3 cm for the first, 1.2 cm for the second.

O=C1[C@@H]2CCCC[C@@H]1[C@@H]1C=C[C@@H]2O1 gave an Activity of 0.9 cm.

These molecules were tested on Sorghum bicolor (assay: Phytotoxic activity against Sorghum bicolor assessed as root growth inhibition at 5.0 x 10^-4 mol/l measured 15 days after seed sowing under greenhouse trials (reference value: 0.0%)). Details: 360 h.
Type: functional

Compared with CC1=C2CCC(C)C[C@@]23O[C@H]1[C@H](C)C(=O)[C@H]3C (some centres not stated), C[C@@]12C=C[C@H](O1)[C@H]1CCCC[C@H]2C1=O is higher in inhibition at 500 µM: 6.2% for the first, 30.7% for the second.

For O=C1[C@@H]2CCCC[C@@H]1[C@@H]1C=C[C@@H]2O1, the inhibition at 500 µM was 6.2%.

The molecules below were run on Sorghum bicolor (assay: Phytotoxic activity against Sorghum bicolor seedlings assessed as radicle length at 5x10'-4 mol/l at 28 +/-1 degC after 48 hr by acid-washed sand based radicle elongation assay (reference value: 5.1 cm)). Details: not given.
Type: functional

Going from CC1=C2CCC(C)C[C@@]23O[C@H]1[C@H](C)C(=O)[C@H]3C (some centres not stated) to C[C@@]12C=C[C@H](O1)[C@H]1CCCC[C@H]2C1=O, the Activity rises from 1.5 cm to 2.1 cm.

For O=C1[C@@H]2CCCC[C@@H]1[C@@H]1C=C[C@@H]2O1, the Activity was 1.9 cm.

Each molecule was assayed on Cucumis sativus (assay: Phytotoxic activity against Cucumis sativus (cucumber) assessed as weight of roots at 5.0 x 10^-4 mol/l measured 15 days after seed sowing under greenhouse trials (reference value: 31.0 mg)). Details: not given.
Type: functional

First: CC1=C2CCC(C)C[C@@]23O[C@H]1[C@H](C)C(=O)[C@H]3C (some centres not stated)
Second: C[C@@]12C=C[C@H](O1)[C@H]1CCCC[C@H]2C1=O
The Activity of the first is higher: 20.3 mg for the first, 17.6 mg for the second.

In the case of O=C1[C@@H]2CCCC[C@@H]1[C@@H]1C=C[C@@H]2O1, the Activity is reported as 16.5 mg.

What follows are molecules tested on Sorghum bicolor (assay: Phytotoxic activity against Sorghum bicolor seedlings assessed as germination at 5x10'-4 mol/l at 28 +/-1 degC after 48 hr by acid-washed sand based radicle elongation assay (reference value: 100%)). Details: not given.
Type: functional

First: CC1=C2CCC(C)C[C@@]23O[C@H]1[C@H](C)C(=O)[C@H]3C (some centres not stated)
Second: C[C@@]12C=C[C@H](O1)[C@H]1CCCC[C@H]2C1=O
The germination % at 500 µM of the first is lower: 96% for the first, 99% for the second.

Work on O=C1[C@@H]2CCCC[C@@H]1[C@@H]1C=C[C@@H]2O1 yielded a germination % at 500 µM of 93%.

Each molecule was assayed on Cucumis sativus (assay: Phytotoxic activity against Cucumis sativus (cucumber) assessed as root growth inhibition at 5.0 x 10^-4 mol/l measured 15 days after seed sowing under greenhouse trials (reference value: 0.0%)). Details: 360 h.
Type: functional

Compared with CC1=C2CCC(C)C[C@@]23O[C@H]1[C@H](C)C(=O)[C@H]3C (some centres not stated), C[C@@]12C=C[C@H](O1)[C@H]1CCCC[C@H]2C1=O is higher in inhibition at 500 µM: 34.4% for the first, 43.1% for the second.

O=C1[C@@H]2CCCC[C@@H]1[C@@H]1C=C[C@@H]2O1 gave an inhibition at 500 µM of 47.3%.

Each molecule was assayed on Sorghum bicolor (assay: Phytotoxic activity against Sorghum bicolor assessed as aerial part growth inhibition at 5.0 x 10^-4 mol/l measured 15 days after seed sowing under greenhouse trials (reference value: 0.0%)). Details: 360 h.
Type: functional

Compared with CC1=C2CCC(C)C[C@@]23O[C@H]1[C@H](C)C(=O)[C@H]3C (some centres not stated), C[C@@]12C=C[C@H](O1)[C@H]1CCCC[C@H]2C1=O is higher in inhibition at 500 µM: 26.3% for the first, 42.6% for the second.

For O=C1[C@@H]2CCCC[C@@H]1[C@@H]1C=C[C@@H]2O1, the inhibition at 500 µM was 4.5%.
